Laboratory results published in patent US20250270206A1, “COMPOSITIONS AND METHODS FOR INHIBITION OF RAS” (TheRas, Inc., priority 2022, published 2025).
pIC50: −log10 of the molar value.

Legend:
[1] = molecular target: T1, GppNHp-loaded KRAS4b (amino acids 1-169) G12C/C118S (Homo sapiens, UniProt P01116, C118S/G12C); experiment: MALDI-TOF MS covalent Cys12 modification, GppNHp-loaded KRAS G12C; type: binding; details: 15 minutes reaction time, 1 μM protein, 1:2.5 protein to compound ratio
T1 construct: KRAS4b (amino acids 1-169) G12C/C118S protein; made in house
Procedure: (§1) MALDI-TOF MS analysis was performed using 1 μM protein target, and 1:2.5 protein to compound ratio was used.
(§2) Reaction: 1 μM of GppNHp, GTP, or GDP-loaded KRAS4b (amino acids 1-169) G12C/C118S protein (produced in-house by Protein Expression Laboratory, FNLCR/Leidos Biomed) in 20 mM 4-(2-hydroxyethyl)-1-piperazineethanesulfonic acid (HEPES) buffer containing 150 mM NaCl, 1 mM MgCl2, pH 7.3 was prepared freshly before assay. Ten-μL aliquots of protein were dispensed onto low volume 384-well plate, then 375 nL DMSO, and 25 nL of tested compounds from 5 mM DMSO stocks were added to appropriate wells using ECHO 555 acoustic liquid handler (Labcyte Inc.). For each reaction/assay, three blanks were prepared by mixing 10 μL of protein solution with 400 nL DMSO. The contents of the wells were carefully mixed by aspiration, and then each plate was sealed with an adhesive cover, centrifuged at 2000 g for 1 minute, and kept in the dark at room temperature until 5 min, 15 min, 30 min, 2 h, or 6 h collections.
(§3) Target pretreatment: Before each assay MALDI target (Bruker MPT 384 ground steel BC) was pre-treated by pipetting on each spot 0.75 μL of saturated sinapinic acid in acetonitrile (ACN).
(§4) Sample preparation: At collection time point, 2 μL of reaction mixtures were pipetted out into 20 μL MALDI matrix solution (saturated solution of sinapinic acid in 1:1 ACN:water solution containing 0.75% trifluoroacetic acid (TFA)) deposited on 384 well polypropylene plate. Resulting solution was mixed by aspiration, centrifuged at 2000 g for 1 minute, then 1 μL aliquots were dispensed on pre-treated MALDI target using Beckman Coulter Biomek FX^P 96/384-Span-8 Laboratory Automation Workstation. Finally, the MALDI target was dried under mild vacuum to produce spots with fine crystalline structure.
(§5) Measurements: MALDI-TOF measurements were performed on a Bruker Daltonics rapifleX Tissuetyper TOF-TOF mass spectrometer using linear mode and mass range from 18.6 to 21.6 kDa. Detector gain was set to 3.3× (483 V), sample rate to 5 GS/s, real time smoothing to medium (175 MHz), laser smart beam pattern was set to: “MS Thin Layer M5”, and the laser frequency was 10000 Hz. Spectra were automatically collected using custom AutoXecute method. Laser power was auto adjusted using fuzzy control. The peak selection range was set to be between 19000 and 21500 Da. Peak evaluation uses half width parameter set to be smaller than 40 Da for processed spectrograms (centroid peak detection: smoothed by SavitzkyGolay algorithm using 7 m/z width and 2 cycles; baseline was subtracted using median algorithm with flatness 1 and median level 0.01). Fuzzy control used Proteins/Oligonucleotides protocol with minimum half width 1/10 times above threshold. Up to 40000 satisfactory shots were collected in 10000 shot steps. Dynamic termination was implemented to finish data collection when peak signal/noise ratio reached a value of 50.
(§6) Spectra processing: Spectra were smoothed by SavitzkyGolay algorithm using 7 m/z width and three cycles. Centroid peak detection algorithm was used with signal to noise threshold set to 6, relative intensity threshold 4%, peak width 10 m/z and median baseline subtraction using flatness of 1 and median level of 0.01. Peak intensity and area under the peak were evaluated and recorded for all peaks between 19,300 Da and 21,550 Da.
(§7) Calculation of percent modification: Percent modification was calculated as a ratio of peak height for protein modified by compound to sum of peak height of remaining protein plus peak height for protein modified by compound. If multiple modifications were observed each was calculated as a ratio of peak height for given modification versus sum of peak heights for all observed protein species. Data reported in Table 5 are from the 15 minutes reaction time point.

[2] = molecular target: T2, GDP-loaded KRAS4b (amino acids 1-169) G12C/C118S (Homo sapiens, UniProt P01116, C118S/G12C); experiment: MALDI-TOF MS covalent Cys12 modification, GDP-loaded KRAS G12C; type: binding; details: 15 minutes reaction time, 1 μM protein, 1:2.5 protein to compound ratio
T2 construct: KRAS4b (amino acids 1-169) G12C/C118S protein; made in house
Procedure: as §1, §2, §3, §4, §5, §6, §7

[3] = molecular target: T3, Avi-KRAS G12C (1-169) GppNHp/RAF1 RBD-3×FLAG (52-151) (Homo sapiens, UniProt P01116, G12C); experiment: KRAS G12C-effector (RAF1 RBD) protein:protein interaction HTRF disruption assay; type: biochemical; details: PPI HTRF
T3 construct: Avi-KRAS G12C (1-169) GppNHp
Procedure: A protein:protein interaction (PPI) Homogeneous Time Resolved Fluorescence (HTRF) assay was used to determine the effectiveness of compounds of the present disclosure in disrupting KRAS G12C protein and effector (RAF1) binding.
The HTRF assay used the following reagents and proteins: 50 nM Avi-KRAS G12C (1-169) GppNHp/RAF1 RBD-3×FLAG (52-151); 75 nM Avi-RAF1 RBD-3×FLAG; Assay Buffer: 50 mM Tris pH 7.5, 100 mM NaCl, 5 mM MgCl2, 0.1% BSA, 0.01% Tween 20, 10% DMSO; Bead Buffer: 50 mM Tris pH 7.5, 0.01% Tween 20; Assay volume: 20 μL (384 well plate-low volume format); and Compound titration: 30-0.02 μM, 3× dilution series.
The HTRF assay employed the following protocol:
Compounds were dispensed in assay plate (384-well, Grenier Bione #784075) using Echo (model 555) with dose response settings: 200 nL final volume, titration from 100 μM as a 10-point dilution series. KRAS proteins were prepared in assay buffer, and dispensed on plates, 5 μL per well, then incubated for 1 h at room temperature, with 700 rpm shaking. RAF1 RBD were prepared in assay buffer, dispensed onto plates, 5 μL per well, and then incubated for 1 h at room temperature, with 700 rpm shaking. Reagent mix was then prepared and dispensed on plates, 10 μL per well, and then incubated for 1 h at room temperature, with 700 rpm shaking.
Plates were analyzed on an Envision plate reader using the following setting: Excitation 320 nm, Bandwidth 75 nm, Emission 615 nm, Bandwidth 85 nm; Gain 100%; Flashes 100; Lag 60 μs. Data was reported as percentage of activity, with DMSO as 100%. Data was plotted and analyzed using Prism 8.

pERK in NCI-H358 cells = experiment: Cell-based pERK HTRF assay; details: Homo sapiens, 0.5 h, 30 min incubation
Procedure: pERK HTRF assays (Perkin Elmer) were used to determine the effectiveness of compounds of the present disclosure in disrupting KRAS G12C protein/effector signaling in cells.
On Day 1, cells (NCI-H358) were seeded into 96-well plates at 4×10^4 cells/well in complete growth media (RPMI, 10% FBS).
On Day 2, cells were treated with compounds at 0.25% DMSO. The source plate was created with compounds diluted in media at 5-fold the final assay concentration. The compounds were run in a 9-point concentration curve starting at 75 μM, with a 3-fold dilution between concentrations. 20 μL was transferred onto the cell plates (final volume in wells was 100 μL). Plates were harvested after 30 min incubation by aspirating media and adding kit-supplied 1× supplemented lysis buffer to all wells (75 μL per well). Plates were then placed on a plate shaker and incubated at 850 rpm for an additional 30 min.
Antibody mixture solution was prepared by diluting aliquoted d2 and Eu Cryptate antibodies 1:20 in kit supplied detection buffer, then mixed the diluted antibodies solutions (1:1 v:v). 4 μL of this solution was then added to a 384-well detection plate (Perkin Elmer; 6008230).
Samples were homogenized by pipetting up and down and then transferred (16 μL of cell lysates) from the 96-well cell culture plate to two wells of the HTRF 384-well detection plate containing the antibody solution. Plates were centrifuged (524 g for 1 min) and allowed to incubate between 4 and 24 h at room temperature. Maximum signal is reached after 4 h incubation time and remains stable over a period of 24 hours. Therefore, readings can be made between 4 and 24 h of incubation. Plates were centrifuged again (524 g for 1 min) and analyzed on the EnVision plate reader using the following settings: Excitation 320 nm, Bandwidth 75 nm; Emission 615 nm, Bandwidth 85 nm; Gain 100%; Flashes 100; Lag 60 μs.

[4] = molecular target: T4, GTP-loaded KRAS4b (amino acids 1-169) G12C/C118S (Homo sapiens, UniProt P01116, C118S/G12C); experiment: MALDI-TOF MS covalent Cys12 modification, GTP-loaded KRAS G12C; type: binding; details: 15 minutes reaction time, 1 μM protein, 1:2.5 protein to compound ratio
T4 construct: KRAS4b (amino acids 1-169) G12C/C118S protein; made in house
Procedure: as §1, §2, §3, §4, §5, §6, §7

| SMILES | GppNHp-KRAS G12C percent of modification [1] | GDP-KRAS G12C percent of modification [2] | pIC50 [3] | pIC50 (pERK in NCI-H358 cells) | GTP-KRAS G12C percent of modification [4] |
| --- | --- | --- | --- | --- | --- |
| C=CC(=O)N1CC[C@@H](N(C)c2nc(OC[C@@]34CCCN3C[C@H](F)C4)nc3c(F)c(-c4ccc(F)c5sc(N)nc45)ncc23)C1 [Compound 4] | A (percent of modification ≥70%) | A (percent of modification ≥70%) | ≥ 6.30 | < 6.00 | – |
| C=CC(=O)N1CCC(N(C)c2nc(OC[C@@H]3CC4(CC4)CN3C)nc3c(F)c(-c4ccc(F)c5sc(N)c(C#N)c45)ncc23)[C@H]1COC (stereo partly drawn) [Compound 21] | A (percent of modification ≥70%) | A (percent of modification ≥70%) | – | 6.00 to 7.00 | A (percent of modification ≥70%) |
| C=CC(=O)N1CC[C@@H](N(C)c2nc(OC[C@@H]3CC4(CC4)CN3C)nc3c(F)c(-c4ccc(F)c5sc(N)c(C#N)c45)ncc23)[C@H]1COC [Compound 21] | – | – | ≥ 6.30 | – | – |
| C=CC(=O)N1CCC(N(C)c2nc(OC[C@@H]3CCCN3C)nc3c(F)c(-c4ccc(F)c5sc(N)c(C#N)c45)ncc23)[C@H]1C (stereo partly drawn) [Compound 22] | A (percent of modification ≥70%) | A (percent of modification ≥70%) | – | 6.00 to 7.00 | A (percent of modification ≥70%) |
| C=CC(=O)N1CC[C@@H](N(C)c2nc(OC[C@@H]3CCCN3C)nc3c(F)c(-c4ccc(F)c5sc(N)c(C#N)c45)ncc23)[C@H]1C [Compound 22] | – | – | ≥ 6.30 | – | – |
| C=CC(=O)N1CCC(N(C)c2nc(OC[C@@H]3CC4(CC4)CN3C)nc3c(F)c(-c4ccc(F)c5sc(N)c(C#N)c45)ncc23)[C@H]1C (stereo partly drawn) [Compound 24] | A (percent of modification ≥70%) | A (percent of modification ≥70%) | – | 6.00 to 7.00 | A (percent of modification ≥70%) |
| C=CC(=O)N1CC[C@@H](N(C)c2nc(OC[C@@H]3CC4(CC4)CN3C)nc3c(F)c(-c4ccc(F)c5sc(N)c(C#N)c45)ncc23)[C@H]1C [Compound 24] | – | – | ≥ 6.30 | – | – |
| C=CC(=O)N1CCC(N(C)c2nc(OC[C@@H]3CCCN3C)nc3c(F)c(-c4ccc(F)c5sc(N)c(C#N)c45)ncc23)[C@H]1COC (stereo partly drawn) [Compound 26] | A (percent of modification ≥70%) | A (percent of modification ≥70%) | – | 6.00 to 7.00 | A (percent of modification ≥70%) |
| C=CC(=O)N1CC[C@@H](N(C)c2nc(OC[C@@H]3CCCN3C)nc3c(F)c(-c4ccc(F)c5sc(N)c(C#N)c45)ncc23)[C@H]1COC [Compound 26] | – | – | ≥ 6.30 | – | – |
| C=CC(=O)N1CCC(N(C)c2nc(OCCOC)nc3c(F)c(-c4ccc(F)c5sc(N)c(C#N)c45)ncc23)[C@H]1C (stereo partly drawn) [Compound 31] | D (percent of modification <10%) | C (10%≤percent of modification <50%) | – | < 6.00 | D (percent of modification <10%) |
| C=CC(=O)N1CC[C@@H](N(C)c2nc(OCCOC)nc3c(F)c(-c4ccc(F)c5sc(N)c(C#N)c45)ncc23)[C@H]1C [Compound 31] | – | – | 5.30 to 6.30 | – | – |
| C=CC(=O)N1CCC(N(C)c2nc(OC)nc3c(F)c(-c4ccc(F)c5sc(N)c(C#N)c45)ncc23)[C@H]1C (stereo partly drawn) [Compound 32] | D (percent of modification <10%) | C (10%≤percent of modification <50%) | – | < 6.00 | D (percent of modification <10%) |
| C=CC(=O)N1CC[C@@H](N(C)c2nc(OC)nc3c(F)c(-c4ccc(F)c5sc(N)c(C#N)c45)ncc23)[C@H]1C [Compound 32] | – | – | 4.70 to 5.30 | – | – |
| C=CC(=O)N1CC[C@@H](N(C)c2nc(OCCO)nc3c(F)c(-c4ccc(F)c5sc(N)c(C#N)c45)ncc23)[C@H]1C [Compound 35] | – | – | 4.70 to 5.30 | – | – |
| C=CC(=O)N1CC[C@@H](N(C)c2ncnc3c(F)c(-c4ccc(F)c5sc(N)c(C#N)c45)ncc23)[C@H]1C [Compound 36] | – | – | 4.70 to 5.30 | – | – |
